These results are taken from patent publication US20110189297A1, “STABLE SOLID ORAL DOSAGE CO-FORMULATIONS” (Sequicia Pharmaceuticals, priority 2008, published 2011).

Data set [1] is described as follows: Dissolution study of hand-filled capsules in simulated gastric fluid, HPLC. The following applies: capsule in 500 mL simulated gastric fluid. It counts as physicochemical. The method, then:
Commercially available 200 mg Reyataz hard gelatin capsules (lot number 6E3004B) were emptied by hand to create a stockpile of Atazanavir (ATV) commercial powder. This commercially available 200 mg Reyataz capsule contains 200 mg ATV as Atazanavir sulphate plus 178 mg of excipients (crospovidone, lactose monohydrate and magnesium stearate) for a total weigh to of 378 mg. 189 mg of the stockpiled commercial powder (equivalent to 100 mg Atazanavir) was blended by tumbling in a glass vial with 100 mg of the spray-dried amorphous dispersion (SDD) of Compound II/EUDRAGIT L-100 (EL-100) where the Compound II:EL100 ratio was 1:1 (produced by Hovione FarmaCientia) and filled by hand into “0” hard gelatin capsules. Therefore, each hand-filled “0” hard gelatin capsule contained 100 mg ATV, […] of Compound II:EL100 (1:1) SDD and 89 mg of excipients. These capsules were dropped into 500 mL of simulated gastric fluid and the amounts of Compound II and ATV in the resulting suspension was determined by HPLC (see Table 1 and FIG. 1).

Another data set has as its system CYP3A. The following applies: human liver microsomes, in vitro; cited from earlier work. For orientation: Microsomes from liver hold many membrane-bound enzymes, among them those of drug oxidation.
Data set [2] in a line: Inherent anti-retroviral activity.
Data set [3] is described as follows: Pharmacokinetic study in beagle dogs, oral dry powder in capsules. In kind it is in vivo. The method, then: A pharmacokinetic study was performed in beagle dogs to evaluate the performance of the oral dosage formulation prepared in Example 1 above. […] Both plasma levels and duration of exposure was increased.
The plasma exposure of the compound of Formula II from Compound II:EL100 (1:1) SDD powder alone was compared to co-administration with Atazanavir powder (FIG. 3). The ratio of the AUCs from mean plasma concentrations was 2.5, but the differences among individual animal was not statistically significant. The apparent increase in mean Compound II exposure came mostly later in the time course, after 8 hours.

Take `COC(=O)N[C@H](C(=O)N[C@@H](Cc1ccccc1)[C@@H](O)CN(Cc1ccc(-c2ccccn2)cc1)NC(=O)[C@@H](NC(=O)OC)C(C)(C)C)C(C)(C)C.O=S(=O)(O)O` [Atazanavir, Atazanavir sulfate, reference compound]: the “% of maximal ATV Conc.” value is 0% in data set [1] (0 min); 88.9% in data set [1] (5 min); 93.4% in data set [1] (10 min); 100.0% in data set [1] (15 min); 99.4% in data set [1] (20 min); 99.1% in data set [1] (25 min). The “% of maximal ATV Conc.” value in data set [1] (30 min) was 97.9%. In addition, the metabolising enzyme entry with CYP3A is “metabolized by CYP3A”.
`CO[C@H](CN(CC(C)C)S(=O)(=O)c1ccc2occc2c1)[C@H](Cc1ccccc1)NC(=O)OC(C)(C)C` [Compound II]: the “% of maximal Compound II Conc.” value is listed as 0% in data set [1] (0 min); 27.6% in data set [1] (5 min); 61.9% in data set [1] (10 min); 54.5% in data set [1] (15 min); 88.2% in data set [1] (20 min); 89.8% in data set [1] (25 min). Also, in data set [1] (30 min), the “% of maximal Compound II Conc.” value is on record as 100.0%. Besides, in data set [2], the inherent anti-retroviral activity result was “no inherent anti-retroviral activity”. Further, the “ratio of the AUCs from mean plasma concentrations of Compound II” value in data set [3] (10 mg/kg Compound II from Compound II:EL100 (1:1) SDD with 20 mg/kg Atazanavir vs alone) is 2.5. Moreover, the “Cmax of Compound II, change on co-administration” value in data set [3] (Compound II:EL100 (1:1) SDD with Atazanavir vs alone) was “slightly increased”.
